The source of these data is paper PMC7824769, “Identification of Small Molecules Blocking the Pseudomonas aeruginosa Type III Secretion System Protein PcrV” (Biomolecules, 2021).

Experiment [1] deals with T1, PcrV (Pseudomonas aeruginosa, UniProt G3XD49). Nature of the experiment: SPR dose-response binding to immobilized PcrV (equilibrium analysis).
Experiment [2] has as its system P. aeruginosa strain PAK. The experiment in a line: Bacterial toxicity (growth) assay, OD600. Format: cell-based, Pseudomonas aeruginosa. The conditions noted are these: 200, 100, 50 and 25 µM; OD600 for 8 h. The method, then:
Overnight culture of the P. aeruginosa strain PAK was diluted in LB (Luria Broth) to an OD600 of 0.2. The bacteria were added into microtiter plates, and 25, 50, 100, and 200 µM of the potential binders were added in triplicates to the bacteria with a final concentration of 1% DMSO. […] Wells with 1% DMSO without substance were used as positive controls.

Experiment [3] addresses T1, PcrV. The experiment in a line: 1H NMR relaxation-edited binding experiment. The conditions noted are these: compound 100 µM, PcrV 10 µM. The procedure: A solution containing 100 µM of the small molecule was prepared from 20 mM stock solution of the tested compound in DMSO and diluted in PBS (pH 7.4) containing trimethylsilyl propanoic acid (TMSP) as an internal standard. This solution was then split into halves and used for preparation of the test and the reference samples as follows: the test sample was prepared by adding 24 µL of 0.211 mM PcrV protein stock solution, resulting in a final protein concentration of 10 µM, whereas the reference sample was prepared by adding the corresponding volume of PBS buffer only before being transferred to 5-mm NMR tubes. The relaxation-edited experiments shown in Figure 3D were recorded on Bruker 600 MHz, and data were acquired at 298 K. Data from 256 scans were accumulated, and a Carr-Purcell-Meiboom-Gill (cpmg) spin-lock of 200 ms was used. Excitation sculpture was applied for water suppression.
To confirm the binding data obtained from the SPR, a secondary qualitative label-free binding experiment based on ^1H-NMR was performed.

The mark [4] stands for this setting: KD ± standard error of KD (Table S1), single experiment, standard error from ProteOn Manager software.
Where [5] appears, read: SPR KD, equilibrium analysis, mean ± SD of three or more independent experiments, individual values where n < 3, 25 °C, PBST 5% DMSO.

SMILES strings stand for the structures. Several values for one entry are separate records, joined by “and”; a condition that tells them apart may be missing. Identical values can stand only once. Some results are limits rather than exact numbers.

For orientation: Kd means the concentration at which binding is half-saturated. High values mean weaker binding, low ones tighter binding.

T1 sequence (G3XD49 entry or part of it): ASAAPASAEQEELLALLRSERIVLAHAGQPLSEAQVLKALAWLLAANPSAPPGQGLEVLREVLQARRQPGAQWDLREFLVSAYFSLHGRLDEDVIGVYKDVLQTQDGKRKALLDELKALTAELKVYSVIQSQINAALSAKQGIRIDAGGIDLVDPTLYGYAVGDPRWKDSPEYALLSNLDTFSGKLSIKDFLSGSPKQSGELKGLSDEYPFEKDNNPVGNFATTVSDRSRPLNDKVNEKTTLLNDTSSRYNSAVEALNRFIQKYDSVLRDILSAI

`Cc1c(Br)ccc(OC[C@@H]2C[C@H]2C(=O)O)c1C` (relative stereo) [Compound 32]: the Kd in experiment [1] (setting [4]) is 61.1 ± 16.9 µM; in experiment [1] (setting [5]), ~60 µM and 61 to 63 µM and 61 µM. The “Rmax (Table S1)” value in experiment [1] (single experiment) was determined as 81.8. The “Effect on bacterial growth” value in experiment [2] is “without affecting bacterial growth”.

On to `Cc1c(Br)ccc(OC[C@@H]2C[C@@H]2C(=O)O)c1C` (relative stereo) [Compound 33], for which the equilibrium dissociation constant (Kd) in experiment [1] (setting [4]) is 59.5 ± 11.1 µM; in experiment [1] (setting [5]) it was ~60 µM and 61 to 63 µM and 63 µM. For the same compound, the “Rmax (Table S1)” value in experiment [1] (single experiment) is given as 76.8. For the same compound, the “Effect on bacterial growth” value in experiment [2] was “without affecting bacterial growth”.

With `Cc1c(Br)ccc(OCCCC(=O)O)c1C` [Compound H1], the Kd in experiment [1] (KD (equilibrium analysis, Figure 3B), one representative experiment, binding levels at 45-55 s) is 98.3 µM; in experiment [1] (setting [5]), < 150 µM and 106 µM. For the same compound, the “Rmax (equilibrium analysis, Figure 3B)” value in experiment [1] (one representative experiment) was 71.3 RU. Further, the “1H NMR binding to PcrV (qualitative)” value in experiment [3] is listed as “signal reduction”.
